Source: PMC9913023, “Repositioning linifanib as a potent anti-necroptosis agent for sepsis” (Cell Death Discovery, 2023)

Molecular target: T1, RIPK1 (receptor-interacting serine/threonine-protein kinase 1) (Homo sapiens, UniProt Q13546)
T1 sequence (Q13546 1-671): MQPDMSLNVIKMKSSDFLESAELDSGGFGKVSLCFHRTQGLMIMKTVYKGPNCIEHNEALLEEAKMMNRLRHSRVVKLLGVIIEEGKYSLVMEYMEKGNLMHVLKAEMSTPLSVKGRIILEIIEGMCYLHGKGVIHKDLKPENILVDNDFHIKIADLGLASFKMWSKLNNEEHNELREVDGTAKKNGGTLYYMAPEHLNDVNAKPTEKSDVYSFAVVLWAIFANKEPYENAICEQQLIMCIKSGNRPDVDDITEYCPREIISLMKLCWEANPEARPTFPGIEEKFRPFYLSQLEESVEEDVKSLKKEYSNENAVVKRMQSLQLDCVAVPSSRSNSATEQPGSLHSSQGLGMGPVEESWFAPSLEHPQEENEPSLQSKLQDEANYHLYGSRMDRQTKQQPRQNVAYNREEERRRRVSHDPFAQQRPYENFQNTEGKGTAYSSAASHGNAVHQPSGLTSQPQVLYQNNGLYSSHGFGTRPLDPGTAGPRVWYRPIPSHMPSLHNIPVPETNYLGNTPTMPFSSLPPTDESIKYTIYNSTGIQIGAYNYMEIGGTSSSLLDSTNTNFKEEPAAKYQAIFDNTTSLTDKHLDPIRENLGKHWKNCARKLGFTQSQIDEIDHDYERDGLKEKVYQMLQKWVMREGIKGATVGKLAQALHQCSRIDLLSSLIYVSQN
Experiment: ADP-Glo kinase assay with recombinant human RIPK1 ([…])
Assay type: biochemical

Work on `Cc1ccc(F)c(NC(=O)Nc2ccc(-c3cccc4[nH]nc(N)c34)cc2)c1` [linifanib] yielded an IC50 of 670 nM.
